Calls of active or inactive are those of the source. How the calls were made is not given here.

The subject of the test is Mycobacterium tuberculosis starved, CFU imaging. Put plainly: M. tuberculosis CFU reduction, CFU imaging, dry powder, dose response (AID 743486).
With `Cn1c(NC(=O)c2ccccc2)nc2c3ccncc3ccc21`, the AC90 is under 64 µM.

Take `Cn1c(NC(=O)c2ccccc2)nc2c3ncccc3ccc21`: the AC90 was > 64 µM (inactive).

On to `Cn1c(NC(=O)c2ccccc2)nc2c3nccnc3ccc21`, for which the AC90 is > 64 µM (inactive).

For the molecule `Cn1c(NC(=O)c2ccccc2)nc2c3cnccc3ccc21`, the AC90 is under 32 µM.

The values above are taken from PubChem BioAssay AID743486 (Broad Institute, 2014).
